In patent publication US11708344B2, “Flavone derivatives for the treatment and prophylaxis of hepatitis B virus disease” (Hoffmann-La Roche Inc., priority 2018, dated 2023):

tested on: HBeAg (surrogate marker for cccDNA) in HepDES19 cells; assay: Engineered HepDES19 primary screen assay (HBeAg ELISA); type: cell-based, HBV; conditions: HepDES19 cells, 5 days compound incubation, HBeAg ELISA; read-out: IC50 (HBeAg level, HepDES19 primary screen assay)
From the text: The assay was employed to screen for novel cccDNA inhibitors. HepDES19 is a cccDNA-producing cell line. In this cell line, HBeAg in the cell culture supernatant as surrogate marker, as HBeAg production depends on cccDNA level and activity. HepDES19 is an engineered cell line which contains a 1.1 unit length HBV genome, and pgRNA transcription from the transgene is controlled by Tetracycline (Tet). In the absence of Tet, pgRNA transcription will be induced, but HBV e antigen (HBeAg) could not be produced from this pgRNA due to very short leader sequence before the HBeAg start codon and the start codon is disrupted. Only after cccDNA is formed, the missing leader sequence and start codon mutation would be restored from the 3′-terminal redundancy of pgRNA, and then HBeAg could be synthesized. Therefore, HBeAg could be used as a surrogate marker for cccDNA (Zhou, T. et al., Antiviral Res. (2006), 72(2), 116-124; Guo, H. et al., J. Virol. (2007), 81(22), 12472-12484).
HepDES19 cells were seeded at 2×10^6 cells per T150 flask and cultured with the culture medium (Dulbecco's Modified Eagle Medium: Nutrient Mixture F-12 [DMEM-F12, Gibco Cat. 11320-82], 10% Fetal Bovine Serum [FBS, Clontech Cat. 631101], 0.1 mM Non-Essential Amino Acids Solution [NEAA, Gibco Cat. 11140-050], 50 μg/mL Penicillin-Streptomycin [PS, Invitrogen Cat. 15140-163], 500 μg/mL Geneticin [G418, Invitrogen Cat. 10131-027]) containing 3 μg/mL Tet (Sigma, Cat. 87128) for 5 days. Cells were then seeded at 4×10^6 cells per T150 in the same culture medium as described above in the absence of Tet for 8 days. Cells were then harvested and frozen at density of 2×10^6 cells per mL. For compound testing, the frozen cells were thawed and seeded into 96-well plates at a density of 6×10^4 cells per well. At 24 hours after seeding, half log serial dilutions of compounds made with Dimethyl sulfoxide (DMSO, Sigma, Cat. D2650) were further diluted with the same culture medium as described above before they were added to the cells to reach desired final compound concentrations and 1% DMSO concentration. Plates were then incubated at 37° C. for another 5 days before measurement of HBeAg level and cell viability. […] HBeAg level were measured with enzyme-linked immunosorbent assay (ELISA) kit (Shanghai Kehua Diagnostic Medical Products Co., Ltd). Cell viability was assessed using Cell Counting Kit-8 (DonJindo, Cat. CK04-20). IC50 values were derived from the dose-response curve using 4 parameter logistic curve fit method.
The compounds of the present invention were tested for their capacity to inhibit extracellular HBeAg level as described herein.

| Compound | IC50 [nM] |
| --- | --- |
| O=c1cc(-c2ccc(Br)cc2OCCO[C@H]2C[C@H](C(=O)O)C2)oc2c(Cl)ccc(C(F)(F)F)c12 [Example C049-B] | 103 |

same assay, conditions: Hepatitis B virus, HepDES19, 120 h, read-out: IC50 (HBeAg level, HepDES19 primary screen assay), HepDES19 cells, 5 days compound incubation, HBeAg ELISA

| Compound | IC50 [nM] |
| --- | --- |
| O=C(O)[C@@H]1C[C@H](Oc2cc(Br)ccc2-c2cc(=O)c3cccc(Cl)c3o2)CN1 [Example B075, (2S,4S)-4-[5-bromo-2-(8-chloro-4-oxo-chromen-2-yl)phenoxy]pyrrolidine-2-carboxylic acid] | 774 |
| O=C(O)C1CCC(OCCOc2cc(Br)ccc2-c2cc(=O)c3cccc(Cl)c3o2)C1 (centres unmarked) [Example C106, 3-[2-[5-bromo-2-(8-chloro-4-oxo-chromen-2-yl)phenoxy]ethoxy]cyclopentanecarboxylic acid] | 2100 |
| O=c1cc(-c2ccc(Br)cc2OCCO[C@H]2C[C@H](C(=O)O)C2)oc2c(Cl)c(F)ccc12 [Example C030-B, Trans-3-[2-[5-bromo-2-(8-chloro-7-fluoro-4-oxo-chromen-2-yl)phenoxy]ethoxy]cyclobutanecarboxylic acid] | 12800 |
| CS(=O)(=O)C1CCN(C(=O)COc2cc(C(F)(F)F)ccc2-c2cc(=O)c3cccc(Cl)c3o2)C1 (centres unmarked) [Example A087, 8-chloro-2-[2-[2-(3-methylsulfonylpyrrolidin-1-yl)-2-oxo-ethoxy]-4-(trifluoromethyl)phenyl]chromen-4-one] | 4980 |
| COc1cc(O[C@H]2C[C@H](C(=O)O)C2)c(-c2cc(=O)c3cccc(Cl)c3o2)cc1Br [Example B014, Trans-3-[4-bromo-2-(8-chloro-4-oxo-chromen-2-yl)-5-methoxy-phenoxy]cyclobutanecarboxylic acid] | 15500 |
| COc1ccc(OC[C@H]2C[C@@H](C(=O)O)C2)c(-c2cc(=O)c3cccc(Cl)c3o2)c1 [Example B027-A] | 2470 |
| O=C1Cc2cc(OCCO[C@H]3C[C@@H](C(=O)O)C3)c(-c3cc(=O)c4cccc(Cl)c4o3)cc2N1 [Example C091, Cis-3-[2-[6-(8-chloro-4-oxo-chromen-2-yl)-2-oxo-indolin-5-yl]oxyethoxy]cyclobutanecarboxylic acid] | 418 |
| CS(=O)(=O)NC(=O)C1CCC(OCCCOc2cc(C(F)(F)F)ccc2-c2cc(=O)c3cccc(Cl)c3o2)C1 (centres unmarked) [Example C124, 3-[3-[2-(8-chloro-4-oxo-chromen-2-yl)-5-(trifluoromethyl)phenoxy]propoxy]-N-methylsulfonyl-cyclopentanecarboxamide] | 2840 |
| O=C(O)COc1cc(OC(F)(F)F)ccc1-c1cc(=O)c2cccc(Cl)c2o1 [Example A048, 2-[2-(8-chloro-4-oxo-chromen-2-yl)-5-(trifluoromethoxy)phenoxy]acetic acid] | 9380 |
| COc1ccc(-c2cc(=O)c3cccc(Cl)c3o2)c(O[C@H]2C[C@H](C(=O)O)C2)c1 [Example B011-B, Trans-3-[2-(8-chloro-4-oxo-chromen-2-yl)-5-methoxy-phenoxy]cyclobutanecarboxylic acid] | 3480 |
| Cc1cc(-c2cc(=O)c3c(O)ccc(Cl)c3o2)c(O[C@H]2C[C@@H](C(=O)O)C2)cc1Br [Example B040-A, cis-3-[5-bromo-2-(8-chloro-5-hydroxy-4-oxo-chromen-2-yl)-4-methyl-phenoxy]cyclobutanecarboxylic acid] | 302 |
| O=c1cc(-c2cc(OC(F)(F)F)c(O)cc2OCCO[C@H]2C[C@@H](C(=O)O)C2)oc2c(Cl)cccc12 [Example C090, Cis-3-[2-[2-(8-chloro-4-oxo-chromen-2-yl)-5-hydroxy-4-(trifluoromethoxy)phenoxy]ethoxy]cyclobutanecarboxylic acid] | 6570 |
| O=C(O)c1cccc(COc2cc(Br)ccc2-c2cc(=O)c3cccc(Cl)c3o2)c1 [Example A072, 3-[[5-bromo-2-(8-chloro-4-oxo-chromen-2-yl)phenoxy]methyl]benzoic acid] | 366 |
| O=C(O)CCOc1cc(OC(F)(F)F)ccc1-c1cc(=O)c2ccc(Br)c(Cl)c2o1 [Example A023, 3-[2-(7-bromo-8-chloro-4-oxo-chromen-2-yl)-5-(trifluoromethoxy)phenoxy]propanoic acid] | 29600 |
| O=c1cc(-c2ccc(Br)cc2O[C@H]2C[C@H](C(=O)O)C2)oc2c(Cl)ccc(O)c12 [Example B036-B, trans-3-[5-bromo-2-(8-chloro-5-hydroxy-4-oxo-chromen-2-yl)phenoxy]cyclobutanecarboxylic acid] | 407 |
| CSc1ccc(-c2cc(=O)c3cccc(Cl)c3o2)c(OCCO[C@H]2C[C@@H](C(=O)O)C2)c1 [Example C064-A, Cis-3-[2-[2-(8-chloro-4-oxo-chromen-2-yl)-5-methylsulfanyl-phenoxy]ethoxy]cyclobutanecarboxylic acid] | 1940 |
| O=C1CCCN1c1ccc(-c2cc(=O)c3cccc(Cl)c3o2)c(OCCO[C@H]2C[C@H](C(=O)O)C2)c1 [Example C063-B, Trans-3-[2-[2-(8-chloro-4-oxo-chromen-2-yl)-5-(2-oxopyrrolidin-1-yl)phenoxy]ethoxy]cyclobutanecarboxylic acid] | 14900 |
| O=c1cc(-c2ccc(Br)cc2OCCCO[C@H]2C[C@H](C(=O)O)C2)oc2c(Cl)cccc12 [Example C056-B, Trans-3-[3-[5-bromo-2-(8-chloro-4-oxo-chromen-2-yl)phenoxy]propoxy]cyclobutanecarboxylic acid] | 2180 |
| COc1cccc(S(=O)(=O)N2C[C@@H](Oc3cc(C(F)(F)F)ccc3-c3cc(=O)c4cccc(Cl)c4o3)C[C@H]2C(=O)O)c1 [Example B079] | 1520 |
| Cc1ccc2c(=O)cc(-c3ccccc3OCCO[C@H]3C[C@@H](C(=O)O)C3)oc2c1Cl [Example C029-A, Cis-3-[2-[2-(8-chloro-7-methyl-4-oxo-chromen-2-yl)phenoxy]ethoxy]cyclobutanecarboxylic acid] | 3360 |
| COC(=O)CCOc1cc(Cl)c(C)cc1-c1cc(=O)c2cccc(Cl)c2o1 [Example A038, methyl 3-[5-chloro-2-(8-chloro-4-oxo-chromen-2-yl)-4-methyl-phenoxy]propanoate] | 4790 |
| COC(=O)C1CC(OCCOc2cc(N3CCOC3=O)ccc2-c2cc(=O)c3cccc(Cl)c3o2)C1 (centres unmarked) [Example C062a, methyl 3-[2-[2-(8-chloro-4-oxo-chromen-2-yl)-5-(2-oxooxazolidin-3-yl)phenoxy]ethoxy]cyclobutanecarboxylate] | 2450 |
| O=c1cc(-c2ccc(C3CC3)cc2OCCO[C@H]2C[C@H](C(=O)O)C2)oc2c(Cl)cccc12 [Example C069-B, Trans-3-[2-[2-(8-chloro-4-oxo-chromen-2-yl)-5-cyclopropyl-phenoxy]ethoxy]cyclobutanecarboxylic acid] | 1290 |
| O=c1cc(-c2ccc(Br)cc2OCCO[C@H]2C[C@@H](C(=O)O)C2)oc2c(Cl)c(C(F)(F)F)ccc12 [Example C048-A, Cis-3-[2-[5-bromo-2-[8-chloro-4-oxo-7-(trifluoromethyl)chromen-2-yl]phenoxy]ethoxy]cyclobutanecarboxylic acid] | 5120 |
| O=c1cc(-c2ccc(Br)cc2OCCO[C@H]2C[C@H](C(=O)O)C2)oc2c(Cl)cccc12 [Example C003-B, tram-3-[2-[5-bromo-2-(8-chloro-4-oxo-chromen-2-yl)phenoxy]ethoxy]cyclobutanecarboxylic acid] | 1340 |
| O=C(O)C1CC(OCCOc2cnccc2-c2cc(=O)c3cccc(Cl)c3o2)C1 (centres unmarked) [Example C061, 3-[2-[[4-(8-chloro-4-oxo-chromen-2-yl)-3-pyridyl]oxy]ethoxy]cyclobutanecarboxylic acid] | 3350 |
| Cc1ccc2c(=O)cc(-c3ccccc3OCCO[C@H]3C[C@H](C(=O)O)C3)oc2c1Cl [Example C029-B, Trans-3-[2-[2-(8-chloro-7-methyl-4-oxo-chromen-2-yl)phenoxy]ethoxy]cyclobutanecarboxylic acid] | 1320 |
| O=C(O)c1ccc(OCCOc2cc(Br)ccc2-c2cc(=O)c3cccc(Cl)c3o2)cc1 [Example C107, 4-[2-[5-bromo-2-(8-chloro-4-oxo-chromen-2-yl)phenoxy]ethoxy]benzoic acid] | 991 |
